Laboratory results: patent US7662576B2, “Method for identifying ester coolers” (International Flavors & Fragrances Inc., priority 2007, dated 2010)
Entries after “also recorded” stand apart in the source; their conditions may differ.

What was measured:
[1] = target: TRPM8 (Homo sapiens, UniProt Q7Z2W7); test: TRPM8 FLIPR analysis (calcium, Fluo4NW); format: cell-based; details: for response of TRPM8 channel / comparison of TRPM8 and TRPA1 response: FLIPR; for response of TRPM8 channel: result in words; for temporal response: FIG. 2; for comparison of TRPM8 and TRPA1 response: TRPM8 versus TRPA1
TRPM8 (Homo sapiens, UniProt Q7Z2W7), sequence (Q7Z2W7 whole entry, species assumed): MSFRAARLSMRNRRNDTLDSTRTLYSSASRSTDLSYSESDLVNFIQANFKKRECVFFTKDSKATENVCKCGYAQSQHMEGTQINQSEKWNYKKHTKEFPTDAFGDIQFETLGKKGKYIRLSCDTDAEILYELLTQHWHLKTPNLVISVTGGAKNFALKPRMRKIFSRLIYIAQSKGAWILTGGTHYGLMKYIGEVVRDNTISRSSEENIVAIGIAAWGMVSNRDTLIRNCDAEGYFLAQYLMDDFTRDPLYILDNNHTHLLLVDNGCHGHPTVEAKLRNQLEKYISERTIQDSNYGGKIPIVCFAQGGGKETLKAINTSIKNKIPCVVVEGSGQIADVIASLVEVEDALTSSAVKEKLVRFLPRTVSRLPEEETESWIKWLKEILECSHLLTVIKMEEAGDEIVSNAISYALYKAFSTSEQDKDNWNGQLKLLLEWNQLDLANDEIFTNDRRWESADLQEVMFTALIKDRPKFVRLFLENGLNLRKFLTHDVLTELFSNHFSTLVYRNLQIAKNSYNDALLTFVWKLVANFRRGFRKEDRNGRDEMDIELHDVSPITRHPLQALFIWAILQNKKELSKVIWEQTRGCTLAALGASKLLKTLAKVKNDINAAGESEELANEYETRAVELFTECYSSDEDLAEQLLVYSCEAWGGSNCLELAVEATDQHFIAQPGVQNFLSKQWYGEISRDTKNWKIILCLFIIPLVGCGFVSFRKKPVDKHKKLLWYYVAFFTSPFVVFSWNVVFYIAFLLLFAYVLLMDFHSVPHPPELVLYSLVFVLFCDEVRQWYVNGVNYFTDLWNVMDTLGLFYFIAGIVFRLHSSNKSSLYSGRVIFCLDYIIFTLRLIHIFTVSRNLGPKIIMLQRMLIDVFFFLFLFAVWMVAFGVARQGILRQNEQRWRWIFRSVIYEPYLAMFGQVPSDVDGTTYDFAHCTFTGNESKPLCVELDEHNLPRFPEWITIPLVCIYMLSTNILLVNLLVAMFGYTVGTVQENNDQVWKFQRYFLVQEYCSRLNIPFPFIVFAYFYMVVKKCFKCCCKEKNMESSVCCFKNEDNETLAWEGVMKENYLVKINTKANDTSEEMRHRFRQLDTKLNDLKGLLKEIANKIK
Procedure: (§1) Materials. Fluo4NW solution was prepared by solubilizing one Fluo4NW bottle (Molecular Probes #F36206, component A) in 16 mL of Tyrode buffer (pH 7.4, 130 mM NaCl, 5 mM KCl, 2 mM CaCl2, 1 mM MgCl2, 5 mM NaHCO3, 20 mM HEPES). To the resulting solution was then added 100 μL of water-soluble probenecid (Molecular Probes #F36206, component B).
(§2) Cell Preparation. Cells were trypsinized and 10,000 cells were dispensed per well in poly-lysine-coated, black, clear-bottom 384-well plates (35 μL/well in DMEM without antibiotics). Cells were incubated for 24 hours at 37° C. in 5% CO2. The medium was completely eliminated and 20 (TRPA1) or 40 (TRPM8) μL/well of Fluo4NW solution was added to the plates. Cells were incubated for 1 hour at room temperature protected from light. Two addition kinetic measurements were recorded on the instrument for 7.5 (TRPA1) or 15 (TRPM8) minutes.

[2] = cited from earlier work; for Relative Cooling Strengths: compared to (−)-Menthol at 100, source Erman (2003); for relative cooling strength: with respect to WS-3 at 10.0, U.S. Patent Application No. 20050265930
[3] = target: mouse TRPA1 channel (Mus musculus, UniProt Q8BLA8); details: literature; cited from earlier work
mouse TRPA1 channel, sequence (Q8BLA8 whole entry): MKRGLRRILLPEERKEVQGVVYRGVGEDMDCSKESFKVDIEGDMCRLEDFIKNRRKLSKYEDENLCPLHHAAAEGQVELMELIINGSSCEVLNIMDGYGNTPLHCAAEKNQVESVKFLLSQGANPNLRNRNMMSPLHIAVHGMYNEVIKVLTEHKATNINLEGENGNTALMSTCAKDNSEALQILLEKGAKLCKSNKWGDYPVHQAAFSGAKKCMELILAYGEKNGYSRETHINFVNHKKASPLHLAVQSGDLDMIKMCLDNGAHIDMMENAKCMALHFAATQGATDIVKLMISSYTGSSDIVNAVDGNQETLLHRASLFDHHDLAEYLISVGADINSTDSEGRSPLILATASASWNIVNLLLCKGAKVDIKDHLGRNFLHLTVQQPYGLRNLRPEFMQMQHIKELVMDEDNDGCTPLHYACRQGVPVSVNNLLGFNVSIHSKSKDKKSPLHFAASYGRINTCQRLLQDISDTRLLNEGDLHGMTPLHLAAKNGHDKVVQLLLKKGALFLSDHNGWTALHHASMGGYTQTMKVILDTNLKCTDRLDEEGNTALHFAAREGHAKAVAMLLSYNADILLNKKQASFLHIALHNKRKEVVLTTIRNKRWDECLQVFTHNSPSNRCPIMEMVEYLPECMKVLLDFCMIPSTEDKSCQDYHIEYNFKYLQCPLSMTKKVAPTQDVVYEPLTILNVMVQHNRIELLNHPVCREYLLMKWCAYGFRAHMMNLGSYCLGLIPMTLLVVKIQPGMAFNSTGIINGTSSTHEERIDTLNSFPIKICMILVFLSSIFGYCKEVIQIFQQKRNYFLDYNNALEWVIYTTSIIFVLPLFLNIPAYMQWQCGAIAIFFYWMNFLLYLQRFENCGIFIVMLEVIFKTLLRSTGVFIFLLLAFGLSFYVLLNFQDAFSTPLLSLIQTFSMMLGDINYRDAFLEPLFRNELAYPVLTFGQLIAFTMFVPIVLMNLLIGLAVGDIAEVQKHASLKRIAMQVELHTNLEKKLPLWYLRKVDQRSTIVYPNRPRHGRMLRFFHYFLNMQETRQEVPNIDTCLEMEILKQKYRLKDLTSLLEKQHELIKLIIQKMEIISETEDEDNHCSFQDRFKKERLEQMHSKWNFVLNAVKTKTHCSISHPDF

[4] = target: T1, human TRPA1 (Homo sapiens, UniProt O75762); test: TRPA1 FLIPR analysis (calcium, Fluo4NW) in TREX FLP-IN HEK 293 cells expressing TRPA1; format: cell-based; details: result in words
T1 construct: expressed in transfected cells
T1 sequence (O75762 whole entry): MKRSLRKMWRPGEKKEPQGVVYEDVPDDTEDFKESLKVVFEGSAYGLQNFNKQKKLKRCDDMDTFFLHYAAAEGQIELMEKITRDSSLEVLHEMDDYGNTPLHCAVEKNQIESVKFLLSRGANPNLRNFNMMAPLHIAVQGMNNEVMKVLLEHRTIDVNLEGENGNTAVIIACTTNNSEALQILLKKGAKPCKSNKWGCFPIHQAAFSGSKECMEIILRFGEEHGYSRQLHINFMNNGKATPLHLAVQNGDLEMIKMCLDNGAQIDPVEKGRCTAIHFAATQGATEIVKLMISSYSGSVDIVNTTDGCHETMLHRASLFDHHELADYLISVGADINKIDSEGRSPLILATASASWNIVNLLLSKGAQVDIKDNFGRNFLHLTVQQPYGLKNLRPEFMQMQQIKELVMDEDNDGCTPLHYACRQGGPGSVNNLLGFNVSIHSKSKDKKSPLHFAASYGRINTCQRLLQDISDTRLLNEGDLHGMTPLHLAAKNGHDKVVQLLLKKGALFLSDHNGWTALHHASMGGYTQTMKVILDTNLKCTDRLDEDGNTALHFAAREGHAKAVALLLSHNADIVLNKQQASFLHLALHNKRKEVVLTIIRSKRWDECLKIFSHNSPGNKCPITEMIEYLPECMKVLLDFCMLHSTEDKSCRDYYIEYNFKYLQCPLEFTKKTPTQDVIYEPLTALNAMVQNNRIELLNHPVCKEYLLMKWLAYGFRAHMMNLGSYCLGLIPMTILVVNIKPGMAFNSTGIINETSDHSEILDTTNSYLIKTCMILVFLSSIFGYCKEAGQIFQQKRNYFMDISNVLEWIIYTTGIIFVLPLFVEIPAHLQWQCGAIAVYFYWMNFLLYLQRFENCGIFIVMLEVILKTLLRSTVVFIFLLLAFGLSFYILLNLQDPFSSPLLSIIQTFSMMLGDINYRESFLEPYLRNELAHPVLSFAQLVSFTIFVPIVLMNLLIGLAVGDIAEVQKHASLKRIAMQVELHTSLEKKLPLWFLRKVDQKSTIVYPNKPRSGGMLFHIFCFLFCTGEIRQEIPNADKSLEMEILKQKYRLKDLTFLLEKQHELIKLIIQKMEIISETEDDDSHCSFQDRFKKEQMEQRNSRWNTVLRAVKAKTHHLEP
Procedure: Preferred assays to measure TRPA1 channel activity are cell-based assays that utilize cells loaded with ion or voltage-sensitive dyes to report TRPA1 activation. By way of illustration, an inducible TRPA1 cell line was created by stably introducing TRPA1 into TREX-FLPN cells (INVITROGEN). […] In this assay, cells were incubated with a suitable flouroscent dye. […] After obtaining a baseline, various cooling compounds were added and fluorescence measured for several minutes.
as §1, §2
NotI and XhoI restriction sites were also added to the ends to facilitate cloning into expression vectors.
The TRPA1 cDNA was cloned into two expression vectors, pcDNA5/FRT and pcDNA5/FRT/TO (INVITROGEN), using the NotI and XhoI sites. The former vector allows for constitutive expression in mammalian cells the latter for inducible expression in same. Restriction digests, ligations and transformations were performed using routine molecular biological techniques, wherein restriction enzymes were obtained from New England Biolabs, a rapid ligation kit from Roche and competent cells (Max Efficiency DH5 t1 phage-resistant) from INVITROGEN. […]

[5] = tested on: TRPA1; details: literature; cited from earlier work
[6] = target: TRPM8 (Mus musculus, UniProt Q8R4D5); details: Behrendt et al. (2004); cited from earlier work
TRPM8 (Mus musculus, UniProt Q8R4D5), sequence (Q8R4D5 whole entry): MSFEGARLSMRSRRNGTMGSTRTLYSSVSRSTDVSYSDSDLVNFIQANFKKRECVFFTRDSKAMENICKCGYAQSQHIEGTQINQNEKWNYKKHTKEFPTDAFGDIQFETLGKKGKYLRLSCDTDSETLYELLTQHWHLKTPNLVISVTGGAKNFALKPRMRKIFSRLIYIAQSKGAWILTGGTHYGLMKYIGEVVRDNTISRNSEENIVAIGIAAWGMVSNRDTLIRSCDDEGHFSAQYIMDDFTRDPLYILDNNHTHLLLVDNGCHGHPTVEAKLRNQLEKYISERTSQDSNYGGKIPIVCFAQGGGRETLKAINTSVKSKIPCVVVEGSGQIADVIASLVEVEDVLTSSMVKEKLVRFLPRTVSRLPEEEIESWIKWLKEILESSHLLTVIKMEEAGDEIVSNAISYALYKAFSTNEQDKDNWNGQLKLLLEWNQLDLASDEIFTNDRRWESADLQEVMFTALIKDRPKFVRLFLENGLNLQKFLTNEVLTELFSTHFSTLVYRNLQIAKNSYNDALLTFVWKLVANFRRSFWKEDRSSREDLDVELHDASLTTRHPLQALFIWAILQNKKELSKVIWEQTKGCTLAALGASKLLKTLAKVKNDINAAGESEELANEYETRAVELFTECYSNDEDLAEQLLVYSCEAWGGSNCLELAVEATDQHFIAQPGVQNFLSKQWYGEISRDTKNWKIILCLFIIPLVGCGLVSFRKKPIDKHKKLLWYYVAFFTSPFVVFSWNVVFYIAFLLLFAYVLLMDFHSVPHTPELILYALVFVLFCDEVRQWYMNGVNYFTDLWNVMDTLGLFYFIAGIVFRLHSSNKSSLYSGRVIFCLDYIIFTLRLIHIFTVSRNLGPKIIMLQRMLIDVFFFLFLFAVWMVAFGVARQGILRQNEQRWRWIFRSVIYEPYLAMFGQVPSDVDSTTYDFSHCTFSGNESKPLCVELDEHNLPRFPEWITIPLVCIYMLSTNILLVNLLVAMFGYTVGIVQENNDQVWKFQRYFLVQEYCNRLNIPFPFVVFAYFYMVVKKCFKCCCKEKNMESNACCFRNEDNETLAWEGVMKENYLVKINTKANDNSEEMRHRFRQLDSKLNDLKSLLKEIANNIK

For `CC(C)[C@@H]1CC[C@@H](C)C[C@H]1[O+](C)C(=O)CCCC(=O)O` [Cooler 2], the “response of TRPM8 channel” value [1] was “did not respond well”.
For `CC(C)[C@@H]1CC[C@@H](C)C[C@H]1OC[C@H](O)CO` [(2R)-3-1-menthoxy)propane-1,2-diol], the “Relative Cooling Strengths” value [2] is given as 15.8.
For `CC(C)[C@@H]1CC[C@H](C)C[C@H]1O` [(+)-Isomenthol], the “Relative Cooling Strengths” value [2] is given as 11.
For `CCCCC[C@H](O)CC(=O)CCc1ccc(O)c(OC)c1` [gingerol], the “activation of mouse TRPA1 channel” value [3] is given as “activated”.
For `CC1CCC(C(C)C)C(O)C1` (single isomer, unassigned; (+)) [(+)-Menthol], the “Relative Cooling Strengths” value [2] is listed as 27.
In the case of `CC(C)[C@H]1CC[C@@H](C)C[C@@H]1O` [(−)-Isomenthol], the “Relative Cooling Strengths” value [2] is given as 3.
In the case of `CC(C)[C@@H]1CC[C@@H](C)C[C@@H]1O` [(+)-Neomenthol], the “Relative Cooling Strengths” value [2] is given as 32.
In the case of `CC(C)[C@@H]1CC[C@@H](C)C[C@H]1OCC(O)CO` (mixture of isomers) [(2RS)-3-1-menthoxy)propane-1,2-diol], the “Relative Cooling Strengths” value [2] is given as 22.5.
For `CC(C)[C@@H]1CC[C@@H](C)C[C@H]1O` [Menthol], the temporal response ([1]; TRPM8 FLIPR) was “quick response with deterioration over time”.
For `CC(C)[C@@H]1CC[C@@H](C)C[C@H]1OC(=O)CCCC(=O)O` [monomenthyl glutarate], the relative cooling strength [2] is given as “about 3.5”.
For `CC1CCC(C(C)C)C(O)C1` (single isomer, unassigned; (-)) [(−)-Menthol], the “Relative Cooling Strengths” value [2] is listed as 100.
For `COC(=O)c1ccccc1O` [methyl salicylate], the “activation of mouse TRPA1 channel” value [3] is given as “activated”.
For `CCNC(=O)C1CC(C)CCC1C(C)C` (stereo not shown) [WS-3, N-ethyl-p-menthane-3-carboxamide], the “comparison of TRPM8 and TRPA1 response” value [1] was “TRPM8 responding better”, the “response of TRPM8 channel” value [1] was “responded” and the “response of TRPA1” value [4] was “responded”. For the same molecule, the “Relative Cooling Strengths” value [2] was 150 and the relative cooling strength [2] was 10.0.
In the case of (+)-Neoisomenthol, the “Relative Cooling Strengths” value [2] is listed as 3.
For `CS(=O)(=O)SCCN` [(2-aminoethyl)methanethiosulfonate], the “activation of TRPA1” value [5] is listed as “bind and activate TRPA1”.
In the case of `CC1CCC(C(C)C)C(C(=O)OCCO)C1` (stereo not shown) [WS-4, Ethyleneglycol p-menthane-3-carboxylate], the “Relative Cooling Strengths” value [2] is given as 23.
For `C=CCN=C=S` [mustard oil, allyl isothiocyanate], the “activation of TRPA1” value [5] is given as “activates TRPA1”.
For `CC(C)[C@@H]1CC[C@@H](C)C[C@H]1OC[C@@H](O)CO` [(2S)-3-1-menthoxy)propane-1,2-diol], the “Relative Cooling Strengths” value [2] is listed as 39.5.
For `CNC(=O)C(C)(C(C)C)C(C)C` [WS-23, 2-Isopropyl-N,2,3-trimethylbutyramide], the “Relative Cooling Strengths” value [2] is listed as 75 and the relative cooling strength [2] is listed as “about 5.0”.
In the case of (−)-Neoisomenthol, the “Relative Cooling Strengths” value [2] is given as 13.
For `CC(=O)CC(=O)OC1CC(C)CCC1C(C)C` (stereo not shown) [Ultracool 7], the “response of TRPM8 channel” value [1] was “did not respond well; also recorded: no response” and the “response of TRPA1” value [4] was “responded to a wide range of concentrations”.
For `COc1ccc(NC(=O)C2CC(C)CCC2C(C)C)cc1` (stereo not shown) [WS-12, N-(4-methoxyphenyl)-p-menthane-3-carboxamide], the “Relative Cooling Strengths” value [2] is listed as 150.
In the case of `CNC(=O)C1C(C)CCCC1(C)C` (stereo not shown) [N,2,2,6-Tetramethylcyclohexane-1-carboxamide], the relative cooling strength [2] is listed as “about 1.0”.
For `CC1CCC(C(C)C)C(OC(=O)C(C)O)C1` (stereo not shown) [Menthyl Lactate], the temporal response ([1]; TRPM8 FLIPR) is given as “quick response with a quick loss of signal”, the Emax ([1]; TRPM8 FLIPR, read-out: response relative to the maximal response of amide coolers) is given as about 50% and the relative cooling strength [2] is given as “about 2.9”. For the same molecule, the “response relative to the level of menthol” value [6] was 50%.
With “Ethyl 3-(p-menthane-3-carboxamido)acetate [WS-5]” the “comparison of TRPM8 and TRPA1 response” value [1] was “TRPM8 responding better”, the “response of TRPM8 channel” value [1] was “responded” and the “response of TRPA1” value [4] was “responded”. The “Relative Cooling Strengths” value [2] was 400 and the relative cooling strength [2] was “about 16.7”.
For `CC1CCC(C(C)(C)O)C(O)C1` (stereo not shown) [PMD 38, p-menthane-3,8-diol], the “Relative Cooling Strengths” value [2] is given as 11.
In the case of `CC1CCC(C(C)C)C(OC(=O)C(C)O)C1` (stereo not shown) [Frescolat MGA, menthyl lactate], the “Relative Cooling Strengths” value [2] is listed as 41.
In the case of `CC1CCC(C(C)C)C(C(=O)NC(C)(C)C)C1` (stereo not shown) [WS-14, N-t-butyl-p-menthane-3-carboxamide], the “Relative Cooling Strengths” value [2] is listed as 75 and the relative cooling strength [2] is listed as “about 5.0”.
In the case of `O=CC=Cc1ccccc1` [cinnamaldehyde], the “activation of mouse TRPA1 channel” value [3] is given as “activated”.
In the case of `CC1CCC(C(C)C)C(O)C1` (single isomer, unassigned; (-)) [(−)-Neomenthol], the “Relative Cooling Strengths” value [2] is given as 3.
In the case of `NC(=O)CI` [iodoacetamide], the “activation of TRPA1” value [5] is listed as “bind and activate TRPA1”.
In the case of `C=CCc1ccc(O)c(OC)c1` [eugenol], the “activation of mouse TRPA1 channel” value [3] is listed as “activated”.
For “1-glyceryl p-menthane-3-carboxylate [WS-30]”, the “Relative Cooling Strengths” value [2] is given as 22.5 and the relative cooling strength [2] is given as “about 1.5”.
In the case of (−)-isopulegol [Coolact P], the “Relative Cooling Strengths” value [2] is given as 25.
